What was measured:
[1] = system: IL-12p70 (the complex of IL-12p35 and p40); test: IL-12p70 production inhibition in macrophages derived from mouse abdomen (IFN-γ/SAC stimulation, ELISA); format: cell-based; settings: Macrophage; mouse (Balb/c) abdominal macrophages, 100 ng/mL mouse IFN-γ + 0.05% SAC, overnight; TFA salts tested where prepared as such; read-out: IL-12p70-Inhibitory Activity IC50
Procedure: (§1) One milliliter each of a 3% (w/v) thioglycolate solution was intraperitoneally administered to mice (female Balb/c mice), the abdominal cells of each mouse were recovered after 5 or 6 days from the administration of the thioglycolate solution and the adhesive cells were collected and used in the exaluation procedures. To a culture medium containing such adhesive cells, there were added 100 ng/mL of mouse interferon-γ and a 0.05% (v/v) liquid containing killed cells derived from Staphylococcus aureus Cowan I strain (SAC) and a candidate compound and then the mixture was cultivated overnight. After the completion of the cultivation, the survival ratios were determined, there were quantitatively determined the quantities of IL-12p70 (the complex of IL-12p35 and p40) and IL-12p40 or TNF-α according to the ELISA assays while making use of the recovered supernatant of the culture medium and the 50% production-inhibitory concentration (IC50) was calculated for each case (see Table 1 and Tables 1-9 for IL-12p70 and TNF-α and Tables 1 to 10 for IL-12p40).

TNF-α = TNF-α production inhibition in macrophages derived from mouse abdomen (IFN-γ/SAC stimulation, ELISA); format: cell-based; settings: Macrophage; mouse (Balb/c) abdominal macrophages, 100 ng/mL mouse IFN-γ + 0.05% SAC, overnight; TFA salts tested where prepared as such; read-out: TNF-α-Inhibitory Activity IC50
Procedure: as §1

SMILES	IC50 [1] [µM]	IC50 (TNF-α) [µM]
C(=N\Nc1cc(N2CCOCC2)n2nc(-c3ccccc3)cc2n1)/c1ccccc1 [Compound 7, N-benzylidene-N′-(7-morpholin-4-yl-2-phenyl-pyrazolo-[1,5-a]pyrimidin-5-yl)-hydrazine]	0.113	> 10
C(=N\Nc1cc(N2CCOCC2)n2nccc2n1)/c1c[nH]c2ccccc12 [Compound 10, N-(1H-indol-3-yl-methylidene)-N′-(7-morpholin-4-yl-pyrazolo[1,5-a]pyrimidin-5-yl)-hydrazine]	0.165	> 10
Cc1cccc(/C=N/Nc2cc(N3CCOCC3)n3nc(-c4ccc(N5CCN(C(=O)OC(C)(C)C)CC5)cc4)cc3n2)c1 [Compound 19, N-[2-{4-(4-t-butoxycarbonyl-piperazin-1-yl)-phenyl}-7-morpholin-4-yl-pyrazolo[1,5-a]pyrimidin-5-yl]-N′-(3-methyl-benzylidene)-hydrazine]	0.06	> 10
Cc1cccc(/C=N/Nc2cc(N3CCOCC3)n3ncc(-c4ccccc4)c3n2)c1 [Compound 6, N-(3-methyl-benzylidene)-N′-(7-morpholin-4-yl-3-phenyl-pyrazolo[1,5-a]pyrimidin-5-yl)-hydrazine]	0.642	> 10
COc1cccc(/C=N/Nc2cc(N3CCOCC3)n3nc(-c4ccccc4)cc3n2)c1 [Compound 29, N-(3-methoxy-benzylidene)-N′-(7-morpholin-4-yl-2-phenyl-pyrazolo[1,5-a]pyrimidin-5-yl)-hydrazine]	0.04	> 10
COc1ccc(C)cc1/C=N/Nc1cc(N2CCOCC2)n2nc(-c3ccccc3)cc2n1 [Compound 40, N-(2-methoxy-5-methyl-benzylidene)-N′-(7-morpholin-4-yl-2-phenyl-pyrazolo[1,5-a]pyrimidin-5-yl)-hydrazine]	0.064	> 10
C(=N\Nc1cc(N2CCOCC2)n2nc(-c3ccccc3)cc2n1)/c1cccnc1 [Compound 8, N-(7-morpholin-4-yl-2-phenyl-pyrazolo[1,5-a]pyrimidin-5-yl)-N′-pyridin-3-yl-methylidene-hydrazine]	0.407	> 10
Cc1ccc(-c2cc3nc(N/N=C/c4c[nH]c5ccccc45)cc(N4CCOCC4)n3n2)cc1 [Compound 4, N-(1H-indol-3-yl-methylidene)-N′-{2-(4-methylphenyl)-7-morpholin-4-yl-pyrazolo[1,5-a]pyrimidin-5-yl}-hydrazine]	0.023	> 10
Cc1cccc(/C=N/Nc2cc(N3CCOCC3)n3nc(-c4ccccc4C)cc3n2)c1 [Compound 14, N-(3-methyl-benzylidene)-N′-{2-(2-methyl-phenyl)-7-morpholin-4-yl-pyrazolo[1,5-a]pyrimidin-5-yl}-hydrazine]	0.038	> 10
Cc1cccc(/C=N/Nc2cc(N3CCOCC3)n3nc(-c4ccc(N5CCNCC5)cc4)cc3n2)c1 [Compound 21, N-(3-methyl-benzylidene)-N′-{7-morpholin-4-yl-2-(4-piperazin-1-yl-phenyl)-pyrazolo[1,5-a]pyrimidin-5-yl}-hydrazine]	0.022	> 10
Cc1ccccc1/C=N/Nc1cc(N2CCOCC2)n2nc(-c3ccccc3)cc2n1 [Compound 57, N-(2-methyl-benzylidene)-N′-(7-morpholin-4-yl-2-phenyl-pyrazolo[1,5-a]pyrimidin-5-yl)-hydrazine]	0.42	–
C(=N\Nc1cc(N2CCOCC2)n2nc(-c3ccncc3)cc2n1)/c1ccc2occc2c1 [Compound 125, N-benzofuran-5-yl-methylidene-N′-(7-morpholin-4-yl-2-pyridin-4-yl-pyrazolo[1,5-a]pyrimidin-5-yl)-hydrazine]	0.036	–
Cc1ccsc1/C=N/Nc1cc(N2CCOCC2)n2nc(-c3ccccc3)cc2n1 [Compound 62, N-(3-methyl-thiophen-2-yl-methylidene)-N′-(7-morpholin-4-yl-2-phenyl-pyrazolo[1,5-a]pyrimidin-5-yl)-hydrazine]	0.32	–
Cc1ccc(/C=N/Nc2cc(N3CCOCC3)n3nc(-c4ccccc4)cc3n2)o1 [Compound 54, N-(5-methyl-furan-2-yl-methylidene)-N′-(7-morpholin-4-yl-2-phenyl-pyrazolo[1,5-a]pyrimidin-5-yl)-hydrazine]	0.3	–
Fc1cccc(/C=N/Nc2cc(N3CCOCC3)n3nc(-c4ccncc4)cc3n2)c1 [Compound 130, N-(3-fluoro-benzylidene)-N′-(7-morpholin-4-yl-2-pyridin-4-yl-pyrazolo[1,5-a]pyrimidin-5-yl)-hydrazine]	0.14	–
Clc1ccccc1/C=N/Nc1cc(N2CCOCC2)n2nc(-c3ccccc3)cc2n1 [Compound 25, N-(2-chloro-benzylidene)-N′-(7-morpholin-4-yl-2-phenyl-pyrazolo[1,5-a]pyrimidin-5-yl)-hydrazine]	0.15	–
C(=N\Nc1cc(N2CCOCC2)n2nc(-c3ccncc3)cc2n1)/c1csc2ccccc12 [Compound 109, N-benzo[b]thiophen-3-yl-methylidene-N′-(7-morpholin-4-yl-2-pyridin-4-yl-pyrazolo[1,5-a]pyrimidin-5-yl)-hydrazine]	0.49	–
Clc1cccc(/C=N/Nc2cc(N3CCOCC3)n3nc(-c4ccccc4)cc3n2)c1 [Compound 26, N-(3-chloro-benzylidene)-N′-(7-morpholin-4-yl-2-phenyl-pyrazolo[1,5-a]pyrimidin-5-yl)-hydrazine]	0.12	–
Cc1cccc(/C=N/Nc2cc(N3CCOCC3)n3nc(N4CCOCC4)cc3n2)c1 [Compound 127, N-(3-methyl-benzylidene)-N-(2,7-dimorpholin-4-yl-pyrazolo[1,5-a]-pyrimidin-5-yl)-hydrazine]	0.16	–

The next molecules have a lower IC50 [1] than those just listed; values first:

IC50 [1] [µM]	IC50 (TNF-α) [µM]	SMILES
0.018	> 10	Cc1cccc(/C=N/Nc2cc(N3CCOCC3)n3nc(-c4ccc(Br)cc4)cc3n2)c1 [Compound 16, N-{2-(4-bromo-phenyl)-7-morpholin-4-yl-pyrazolo[1,5-a]-pyrimidin-5-yl}-N′-(3-methyl-benzylidene)-hydrazine]
0.017	> 10	Cc1cccc(/C=N/Nc2cc(N3CCOCC3)n3nc(-c4cccc(Cl)c4)cc3n2)c1 [Compound 12, N-{2-(3-chloro-phenyl)-7-morpholin-4-yl-pyrazolo[1,5-a]-pyrimidin-5-yl}-N′-(3-methyl-benzylidene)-hydrazine]
0.014	> 10	CCN(CC)c1ccc(-c2cc3nc(N/N=C/c4cccc(C)c4)cc(N4CCOCC4)n3n2)cc1 [Compound 23, N-{2-(4-diethyl-amino-phenyl)-7-morpholin-4-yl-pyrazolo-[1,5-a]pyrimidin-5-yl}-N′-(3-methyl-benzylidene)-hydrazine]
0.011	> 10	Cc1cccc(/C=N/Nc2cc(N3CCOCC3)n3nc(-c4cccs4)cc3n2)c1 [Compound 18, N-(3-methyl-benzylidene)-N′-(7-morpholin-4-yl-2-thiophen-2-yl-pyrazolo[1,5-a]pyrimidin-5-yl)-hydrazine]
0.011	> 10	COc1ccc(-c2cc3nc(N/N=C/c4cccc(C)c4)cc(N4CCOCC4)n3n2)cc1 [Compound 15, N-{2-(4-methoxy-phenyl)-7-morpholin-4-yl-pyrazolo[1,5-a]pyrimidin-5-yl}-N′-(3-methyl-benzylidene)-hydrazine]
0.0096	–	COCCN(CCOC)c1ccc(-c2cc3nc(N/N=C/c4cccc(C)c4)cc(N4CCOCC4)n3n2)cc1 [Compound 32, N-{2-[4-bis-(2-methoxy-ethyl-amino)-phenyl]-7-morpholin-4-yl-pyrazolo[1,5-a]pyrimidin-5-yl}-N′-(3-methyl-benzylidene)-hydrazine]
0.0087	> 10	Cc1cccc(/C=N/Nc2cc(N3CCOCC3)n3nc(-c4ccc(NN5CCOCC5)cc4)cc3n2)c1 [Compound 68]
0.0082	> 10	Cc1cccc(/C=N/Nc2cc(N3CCOCC3)n3nc(-c4ccc(N5CCSCC5)cc4)cc3n2)c1 [Compound 69, N-(3-methyl-benzylidene)-N′-{7-morpholin-4-yl-2-(4-thiomorpholin-4-yl-phenyl)-pyrazolo[1,5-a]pyrimidin-5-yl}-hydrazine]
0.008	> 10	Cc1cccc(/C=N/Nc2cc(N3CCOCC3)n3nc(-c4ccccn4)cc3n2)c1 [Compound 20, N-(3-methyl-benzylidene)-N′-(7-morpholin-4-yl-2-pyridin-2-yl-pyrazolo[1,5-a]pyrimidin-5-yl)-hydrazine]
0.005	> 10	CC(=O)N1CCN(c2ccc(-c3cc4nc(N/N=C/c5cccc(C)c5)cc(N5CCOCC5)n4n3)cc2)CC1 [Compound 22, N-[2-{4-(4-acetyl-piperazin-1-yl)-phenyl}-7-morpholin-4-yl-pyrazolo[1,5-a]pyrimidin-5-yl]-N′-(3-methyl-benzylidene)-hydrazine]
0.0018	–	C(=N\Nc1cc(N2CCOCC2)n2nc(-c3ccc(N4CCOCC4)nc3)cc2n1)/c1c[nH]c2ccccc12 [Compound 86, N-(1H-indol-3-yl-methylidene)-N′-[7-morpholin-4-yl-2-(6-morpholin-4-yl-pyridin-3-yl)-pyrazolo[1,5-a]pyrimidin-5-yl]-hydrazine]
